Laboratory results published in US7071165B2, “LHRH antagonist peptides” (Indiana University Research and Technology Corporation, priority 1995, dated 2006).

Columns and labels:
[1] = cited from earlier work
ovulation in female rats [2] = assay: Anti-ovulatory activity (AOA) in vivo assay in rats; parameters: species or system rat; details: for AO activity (AOA), in words: rat, in vivo
Procedure, shortened: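 Female rats dosed on proestrus day with test peptide dissolved in 0.1% DMSO. Read-out is the number of rats that ovulate; antagonist activity is defined as blocking ovulation in at least 50% of treated rats at a dose of 5 μg per rat.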

rat mast cells = assay: Histamine release assay, rat mast cells
Procedure: The term “histamine-releasing activity”, as used herein, refers to the tendency of a compound to release histamine when administered to a subject. The histamine-releasing activity of a compound can be measured with an in vitro assay (described in more detail, infra). […] Histamine-releasing activity was assayed by the method described in U.S. Pat. No. 4,851,385 to Roeske. Briefly, a suspension of rat mast cells was added to increasing concentrations of an LHRH antagonist peptide and incubated for 15 minutes at 37° C. The buffer contained 25 mM PIPES, pH 7.4, NaCl (119 mM), KCl (5 mM), NaOH (40 mM) glucose (5.6 mM), CaCl2 (1 mM) and 0.1% bovine serum albumin.

ovulation in female rats [3] = assay: Anti-ovulatory activity (AOA) in vivo assay in rats; details: dose 0.5 μg per rat
plasma testosterone [4] = assay: Suppression of plasma testosterone, continuous subcutaneous infusion via osmotic pump (FIG. 2, FIG. 3); type: in vivo, rat
Procedure: FIG. 2 is a graph depicting plasma testosterone levels (in ng/ml) in adult male rats subcutaneously administered the LHRH antagonist #3827 via an osmotic pump. Doses were either 300 μg/kg/day for two weeks, followed by 15 μg/kg/day for an additional two weeks or 1000 μg/kg/day for two weeks, followed by 5, 15 or 50 μg/kg/day for an additional two weeks.
FIG. 3 is a graph depicting the plasma testosterone levels (in ng/ml) in adult male rats subcutaneously administered the LHRH antagonist #3827 via an osmotic pump. Doses were either 30 μg/kg/day for two weeks, followed by 5 μg/kg/day for an additional two weeks, 100 μg/kg/day for two weeks, followed by 5 μg/kg/day for an additional two weeks. or 300 μg/kg/day for two weeks, followed by 0 or 5 μg/kg/day for an additional two weeks.
In another experiment, continuous subcutaneous infusion of the LHRH antagonist # 3827 was achieved through use of an osmotic pump. Doses of 300 or 1000 μg/kg/day (“High Dose”) were administered subcutaneously for two weeks via Alzet osmotic minipumps in each of five male Sprague-Dawley rats. The animals that received 1000 μg/kg/day were then maintained for an additional two weeks with 5, 15 or 50 μg/kg/day (“Low Dose”) before the pumps were removed completely. The results are shown graphically in FIG. 2.

plasma testosterone [5] = assay: Suppression of plasma testosterone, eight doses every three hours (FIG. 1); type: in vivo, rat; details: adult male rats
Procedure: FIG. 1 is a graph depicting plasma testosterone levels (in ng/ml) in adult male rats administered eight subcutaneous injections of the LHRH antagonist #3827, one injection every three hours, at doses of 1, 10 or 100 μg/kg.
In another experiment, the LHRH antagonist #3827 was administered in eight […] doses of 1, 10 or 100 μg/kg, each every three hours, corresponding respectively to 8, 80 or 800 μg/kg/day. The results are shown graphically in FIG. 1.

plasma testosterone [6] = assay: Suppression of plasma testosterone, single subcutaneous injection; type: in vivo, rat; details: adult male rats
Procedure: The ability of an LHRH antagonist of the invention to suppress plasma testosterone levels was examined in adult male rats. In one experiment, a single injection of LHRH antagonist was administered subcutaneously at doses of 300 or 1000 μg/kg. […] Testosterone levels returned to normal by 24 hours after the 300 μg/kg dose, but not until 72 hours after the 1000 μg/kg dose.

[7] = footnote a: run with Nal arg reference 0.11
[8] = footnote b: run with Nal arg reference 0.14
[9] = rat mast cells, 15 minutes at 37° C.
[10] = follow up study, FIG. 3, osmotic pump s.c.

Compound | AO activity (AOA): rats which ovulate / rats treated (ovulation in female rats [2]; dose 1 μg per rat) | AO activity (AOA), in words (ovulation in female rats [2]) | AO activity (AOA): rats which ovulate / rats treated (ovulation in female rats [3]) | further results
c1ccc2ccccc2c1 [naphthalene] | – | – | – | measured log P (octanol/water) [1]: 3.45
Oc1ccc2ccccc2c1 [β-naphthol] | – | – | – | measured log P (octanol/water) [1]: 2.84
Ac-D-Nal^1, 4-Cl-D-Phe^2, D-Pal^3, 4-Cl-Phe^5, D-Pal(iPr)^6, Lys(iPr)^8, D-Ala^10-LHRH.2TFA [Compound 3851] | 0/8@1.0 | unexpectedly active | 6/8@0.5 | Histamine release ED50 (rat mast cells; [7]): 4.1 µg/mL; Histamine release ED50 (rat mast cells; [8]): 5.4 µg/mL
Ac-D-Nal^1, 4-Cl-D-Phe^2, D-Pal^3, D-Arg^6, Met(S^+Me)^8, D-Ala^10-LHRH.2TFA [Compound 3983] | 0/8@1.00 | high AOA | 8/8@0.5 | Histamine release ED50 (rat mast cells; footnote g: run with Nal arg reference 0.1): 5.35 µg/mL; Histamine release ED50 (rat mast cells; footnote h: run with Nal arg reference 0.02): 1.32 µg/mL
Ac-D-Nal^1, 4-Cl-D-Phe^2, D-Pal^3, D-Arg^6, Orn(COCH2S^+Me2)^8, D-Ala^10, LHRH.2TFA [Compound 3985] | 0/8@1.00 | – | 8/8@0.5 | Histamine release ED50 (rat mast cells; [7]): 4.4 µg/mL; Histamine release ED50 (rat mast cells; [8]): 3.86 µg/mL
Ac-D-Nal^1, 4-Cl-D-Phe^2, D-Pal^3, D-Lys(Glc)^6-Lys(iPr)^8, D-Ala^10-LHRH.TFA [Compound 3423A] | 2/10@1 μg | – | 7/10@0.5 μg | AO activity (AOA): rats which ovulate / rats treated (ovulation in female rats [2]; dose 2 μg per rat): 0/10@2 μg; Histamine release ED50 (rat mast cells; [9]): 52 µg/mL
Ac-D-Nal^1, 4-Cl-D-Phe^2, D-Pal^3, D-Lys(Imdac)^6, Lys(iPr)^8, D-Ala^10-LHRH.TFA [Compound 3741] | 1/8@1.0 | good AO activity | 6/8@0.5 | –
Ac-D-Nal^1, 4-Cl-D-Phe^2, D-Pal^3, D-Lys(OTac)^6, Lys(iPr)^8, D-Ala^10-LHRH.TFA [Compound 3508] | 0/8@1 μg | – | 6/8@0.5 μg | –
Ac-D-Nal^1, 4-Cl-D-Phe^2, D-Pal^3, D-Lys(Ppic)^6, Lys(iPr)^8, D-Ala^10-LHRH.TFA [Compound 3760] | 1/8@1.0 | good AO activity | 7/8@0.5 | –
Ac-D-Nal^1, 4-Cl-D-Phe^2, D-Pal^3, D-Met(S^+CH3)^6, D-Ala^10-LHRH.2TFA [Compound 3967] | – | – | 1/8@0.5 | AO activity (AOA): rats which ovulate / rats treated (ovulation in female rats [2]; dose 0.25 μg per rat): 7/8@0.25; Histamine release ED50 (rat mast cells; footnote e: run with Nal arg reference 0.1): 0.38 µg/mL; Histamine release ED50 (rat mast cells; footnote f: run with Nal arg reference 0.02): 0.15 µg/mL
Ac-D-Nal^1, 4-Cl-D-Phe^2, D-Pal^3, D-Pal(Bzl)^6, Lys(iPr)^8, D-Ala^10-LHRH.TFA [Compound 3429] | 0/8@1 μg | – | 4/8@0.5 μg | Histamine release ED50 (rat mast cells; [9]): 6.0 µg/mL
Ac-D-Nal^1, 4-Cl-D-Phe^2, D-Pal^3, N-Me-Tyr^5, D-Asn^6, Lys(iPr)^8, D-Ala^10-LHRH.TFA [Compound 3827] | 4/8@1.0 | moderate AO activity | – | castration during Low Dose maintenance (plasma testosterone [4]; after High Dose two weeks, Low Dose pumps 5, 15 or 50 μg/kg/day, as low as 5 μg/kg/day): remained fully castrated; recovery in plasma testosterone following completion of treatment (plasma testosterone [4]; by maintenance dose): dose dependent recovery; dose achieving complete suppression of testosterone to castrate levels (as low as) (plasma testosterone [4]; [10]): ≤ 30 µg/kg/day; dose maintaining castrate levels (as low as) (plasma testosterone [4]; [10]): ≤ 5 µg/kg/day; time to castrate levels of testosterone (plasma testosterone [4]; male Sprague-Dawley rats, osmotic pump s.c., initial dose 300 or 1000 μg/kg/day): ≤ 7 days; castration response during chronic treatment (plasma testosterone [4]; osmotic pump s.c.): no apparent “castration response”; recovery of testosterone levels following pump removal (plasma testosterone [4]; rat, in vivo): complete within two weeks; plasma testosterone (plasma testosterone [5]; eight doses of 1 μg/kg, every three hours (8 μg/kg/day)): significant decrease; plasma testosterone (plasma testosterone [5]; eight doses of 10 μg/kg, every three hours (80 μg/kg/day)): Castrate levels; time until testosterone levels returned to normal (plasma testosterone [6]; single s.c. 300 μg/kg): ≤ 24 h; time until testosterone levels returned to normal (plasma testosterone [6]; single s.c. 1000 μg/kg): 72 h; plasma testosterone (plasma testosterone [6]; single s.c. injection 300 or 1000 μg/kg, by 6 hours post-administration): nearly undetectable levels
Ac-D-Nal^1, 4-Cl-D-Phe^2, D-Trp^3, D-Arg^6, Met(S^+Me)^8, D-Ala^10-LHRH.2TFA [Compound 3878] | 2.8@1.0 | – | 7/8@0.5 | –
Ac-D-Nal^1, 4-Cl-D-Phe^2, D-Trp^3, D-Met(S^+Me)^6, D-Ala^10-LHRH.2TFA [Compound 3879] | 0/8@1.0 | high AOA | 6/8@0.5 | –
